Earlier results as cited in patent US20220378773A1, “METHODS FOR TREATING LEUKEMIA AND USE OF A LEUKEMIC STEM CELL SIGNATURE TO PREDICT CLINICAL SENSITIVITY TO THERAPIES” (CELGENE CORPORATION, priority 2019, published 2022).

Columns and labels:
[1] = relative humidity increased from about 0% to about 90% RH; cited from earlier work
[2] = system: acute myeloid leukemia (AML) at relapse; conditions: administered alone; cited from earlier work

Compound | water uptake [1] | response in treating AML at relapse [2]
O=C1CCC(N2Cc3cc(CNC(=O)C(F)(F)c4ccc(Cl)cc4)ccc3C2=O)C(=O)N1 (stereo not shown) [Form A, 2-(4-chlorophenyl)-N-((2-(2,6-dioxopiperidin-3-yl)-1-oxoisoindolin-5-yl)methyl)-2,2-difluoroacetamide] | about 1.2 % w/w | 
O=C1CCC(N2Cc3cc(CNC(=O)C(F)(F)c4ccc(Cl)cc4)ccc3C2=O)C(=O)N1 (stereo not shown) [Form B, 2-(4-chlorophenyl)-N-((2-(2,6-dioxopiperidin-3-yl)-1-oxoisoindolin-5-yl)methyl)-2,2-difluoroacetamide] | about 1.4 % w/w | 
O=C1CCC(N2Cc3cc(CNC(=O)C(F)(F)c4ccc(Cl)cc4)ccc3C2=O)C(=O)N1 (stereo not shown) [Form C, 2-(4-chlorophenyl)-N-((2-(2,6-dioxopiperidin-3-yl)-1-oxoisoindolin-5-yl)methyl)-2,2-difluoroacetamide] | about 0.6 % w/w | 
CT-011: anti-PD-1 antibody, a humanized antibody |  | failed to show response
